Measurements from PubChem BioAssay (NCI).
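96-well plates; 48 h exposure; 5 concentrations. Endpoints by linear interpolation between flanking doses. Not reached: highest tested concentration assigned. TGI: concentration producing complete growth inhibition.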

Experiments:
Test in all cases: NCI-60 cell line screen, 48 h
EKVX NSCLC = system: EKVX NSCLC
UACC-62 melanoma = system: UACC-62 melanoma
KM12 colon = system: KM12 colon
T-47D breast = system: T-47D breast
ACHN renal = system: ACHN renal
SNB-75 CNS = system: SNB-75 CNS
U251 CNS = system: U251 CNS
SK-OV-3 ovarian = system: SK-OV-3 ovarian
SF-539 CNS = system: SF-539 CNS
OVCAR-5 ovarian = system: OVCAR-5 ovarian
COLO 205 colon = system: COLO 205 colon
NCI/ADR-RES ovarian = system: NCI/ADR-RES ovarian
HT29 colon = system: HT29 colon
MDA-MB-435 = system: MDA-MB-435
HCT-15 colon = system: HCT-15 colon
A498 renal = system: A498 renal
BT-549 breast = system: BT-549 breast
UACC-257 melanoma = system: UACC-257 melanoma
HOP-92 NSCLC = system: HOP-92 NSCLC
K-562 leukemia = system: K-562 leukemia
HL-60(TB) leukemia = system: HL-60(TB) leukemia
SN12C renal = system: SN12C renal
SK-MEL-28 melanoma = system: SK-MEL-28 melanoma
NCI-H226 lung = system: NCI-H226 lung
OVCAR-4 ovarian = system: OVCAR-4 ovarian
MDA-N = system: MDA-N
LOX IMVI melanoma = system: LOX IMVI melanoma
DU-145 prostate = system: DU-145 prostate
PC-3 prostate = system: PC-3 prostate
HCC-2998 colon = system: HCC-2998 colon
MCF7 breast = system: MCF7 breast
HS 578T breast = system: HS 578T breast
SF-295 CNS = system: SF-295 CNS
786-0 renal = system: 786-0 renal
MDA-MB-231 breast = system: MDA-MB-231 breast
OVCAR-8 ovarian = system: OVCAR-8 ovarian
SK-MEL-2 melanoma = system: SK-MEL-2 melanoma
SR leukemia = system: SR leukemia
HCT-116 colon = system: HCT-116 colon
SK-MEL-5 melanoma = system: SK-MEL-5 melanoma
OVCAR-3 ovarian = system: OVCAR-3 ovarian
CAKI-1 renal = system: CAKI-1 renal
RXF 393 renal = system: RXF 393 renal
RPMI-8226 leukemia = system: RPMI-8226 leukemia
SNB-19 CNS = system: SNB-19 CNS
SW-620 colon = system: SW-620 colon
SF-268 CNS = system: SF-268 CNS
NCI-H522 lung = system: NCI-H522 lung
CCRF-CEM leukemia = system: CCRF-CEM leukemia
MOLT-4 leukemia = system: MOLT-4 leukemia
A549 NSCLC = system: A549 NSCLC
M14 melanoma = system: M14 melanoma
NCI-H460 lung = system: NCI-H460 lung
NCI-H23 lung = system: NCI-H23 lung
HOP-62 NSCLC = system: HOP-62 NSCLC
IGROV1 ovarian = system: IGROV1 ovarian
TK-10 renal = system: TK-10 renal
MALME-3M melanoma = system: MALME-3M melanoma
UO-31 renal = system: UO-31 renal

Measured: TGI

COc1cc([C@@H]2c3cc4c(cc3[C@@H](c3c(O)cc(O)c5c3O[C@H](c3ccc(O)c(O)c3)[C@H](OC(=O)c3cc(O)c(O)c(O)c3)C5)[C@H]3COC(=O)[C@H]23)OCO4)cc(OC)c1OC
> 75.9 µM: HT29 colon
> 77.8 µM: PC-3 prostate
> 41.8 µM: SF-295 CNS
71.7 µM: HCC-2998 colon
96.9 µM: NCI-H460 lung
7.23 µM: MDA-MB-435
0.729 µM: HL-60(TB) leukemia
8.14 µM: SR leukemia
7.53 µM: NCI-H226 lung
> 96.6 µM: CAKI-1 renal
90 µM: COLO 205 colon
16.2 µM: CCRF-CEM leukemia
> 21.9 µM: OVCAR-3 ovarian
> 50 µM: ACHN renal
not listed: MALME-3M melanoma | UO-31 renal
> 100 µM: all other assays above

CN(C)CCc1ccnc2nc(-c3ccc4ccccc4c3)cn12
37.2 µM: HCC-2998 colon
77.5 µM: SF-268 CNS
81.8 µM: IGROV1 ovarian
65 µM: LOX IMVI melanoma
38.9 µM: HT29 colon
44.3 µM: KM12 colon
52.8 µM: HS 578T breast
46.2 µM: NCI-H23 lung
92.7 µM: OVCAR-8 ovarian
34.1 µM: NCI-H460 lung
47.7 µM: SW-620 colon
24.8 µM: NCI-H522 lung
40.7 µM: TK-10 renal
85.3 µM: NCI/ADR-RES ovarian
75.9 µM: SN12C renal
69 µM: BT-549 breast
63.2 µM: 786-0 renal
72 µM: OVCAR-3 ovarian
not listed: SNB-75 CNS | SF-539 CNS | A498 renal | HOP-92 NSCLC
> 100 µM: all other assays above
